{"source": "patent US20240150356A1", "about": "“Pyrimidine amide compounds and use thereof” (ALPHALA CO., LTD., priority 2019, published 2024)"}
{"tested_on": "Hep3B cells (hepatocellular carcinoma cell line)", "assay": "In vitro MTS cell viability assay (NCI-60 methodology), Hep3B", "type": "cell-based", "conditions": "Homo sapiens, 48 h, Table 1, MTS, 2 days drug incubation, 50% reduction vs time zero, read-out: Hep3B LC50", "protocol": "(§1) The cell viability measurement is based on the NCI-60 screening methodology (Nat. Rev. Cancer 6, 813-823, 2006). Briefly, cells are inoculated into 96-well plates at the optimal plating density. After 24 h, one of the two plates for Hep3B cell line is processed to determine a time zero cell viability (Tz) by MTS assay (Promega). Compounds are added over a 2-fold serial dilution to provide a total five drug concentrations plus DMSO control. Plates are incubated for a further 2 days, then measured cell viability by MTS assay [control growth (C) and test growth in the presence of drug at the five concentration levels (Ti)]. The LC50 is calculated from [(Ti−Tz)/Tz]×100=−50, which is the drug concentration resulting in a 50% reduction at the end of the drug treatment as compared to that at the beginning.\n(§2) The compounds prepared in Tables 1-10 were tested in three in vitro assays, and the results are shown in Tables 1-10 for Hep3B and Table 11 for SW480 and NCI-H460 shown below. Herein, Hep3B refers to hepatocellular carcinoma cell line, SW480 refers to colon adenocarcinoma cell line, and NCI-H460 refers to human lung cancer cell line.\n(§3) Shown in following Tables 1 to 10 are the structures and in vitro activities of exemplary compounds of formula (I).", "units": {"LC50": "nM"}}
{"compound": "CCOc1ccc(-c2nc(NC(=O)c3ccc([N+](=O)[O-])s3)c3cnn(C)c3n2)cc1", "note": "[Compound 1-2, N-(6-(4-ethoxyphenyl)-1-methyl-1H-pyrazolo[3,4-d]pyrimidin-4-yl)-5-nitrothiophene-2-carboxamide]", "LC50": 3240}
{"compound": "CN(C)c1ccc(-c2nc(NC(=O)c3ccc([N+](=O)[O-])s3)c3cnn(C)c3n2)cc1", "note": "[Compound 1-10, N-(6-(4-(dimethylamino)phenyl)-1-methyl-1H-pyrazolo[3,4-d]pyrimidin-4-yl)-5-nitrothiophene-2-carboxamide]", "LC50": "> 5000"}
{"compound": "O=C(Nc1nc(-c2ccc(OC(F)(F)F)cc2)nc2c1cnn2CCN1CCC(F)(F)C1)c1ccc([N+](=O)[O-])s1", "note": "[Compound 1-32, N-(1-(2-(3,3-difluoropyrrolidin-1-yl)ethyl)-6-(4-(trifluoromethoxy)phenyl)-1H-pyrazolo[3,4-d]pyrimidin-4-yl)-5-nitrothiophene-2-carboxamide]", "LC50": 770}
{"compound": "Cn1ncc2c(NC(=O)c3ccc([N+](=O)[O-])s3)nc(-c3ccc(C(C)(C)C)cc3)nc21", "note": "[Compound 1-1, N-(6-(4-(tert-butyl)phenyl)-1-methyl-1H-pyrazolo[3,4-d]pyrimidin-4-yl)-5-nitrothiophene-2-carboxamide]", "LC50": 1800}
{"tested_on": "Hep3B cells (hepatocellular carcinoma cell line)", "assay": "In vitro MTS cell viability assay (NCI-60 methodology), Hep3B", "type": "cell-based", "conditions": "Homo sapiens, 48 h, Table 2, MTS, 2 days drug incubation, 50% reduction vs time zero, read-out: Hep3B LC50", "protocol": "as §1, §2, §3", "units": {"LC50": "nM"}}
{"compound": "CC(C)(C)n1ncc2c(-c3ccc(OC(F)(F)F)cc3)nc(NC(=O)c3ccc([N+](=O)[O-])s3)nc21", "note": "[Compound 2-4, N-(1-(tert-butyl)-4-(4-(trifluoromethoxy)phenyl)-1H-pyrazolo[3,4,d]pyrimidin-6-yl)-5-nitrothiophene-2-carboxamide]", "LC50": 3050}
{"compound": "CC(C)(C)c1ccc(-c2nc(NC(=O)c3ccc([N+](=O)[O-])s3)nc3c2cnn3C(C)(C)C)cc1", "note": "[Compound 2-5, N-(1-(tert-butyl)-4-(4-(tert-butyl)phenyl)-1H-pyrazolo[3,4-d]pyrimidin-6-yl)-5-nitrothiophene-2-carboxamide]", "LC50": 12900}
{"tested_on": "Hep3B cells (hepatocellular carcinoma cell line)", "assay": "In vitro MTS cell viability assay (NCI-60 methodology), Hep3B", "type": "cell-based", "conditions": "Homo sapiens, 48 h, Table 4, MTS, 2 days drug incubation, 50% reduction vs time zero, read-out: Hep3B LC50", "protocol": "as §1, §2, §3", "units": {"LC50": "nM"}}
{"compound": "Cc1csc2c(NC(=O)c3ccc([N+](=O)[O-])s3)nc(-c3ccc(C(C)(C)C)cc3)nc12", "note": "[Compound 4-1]", "LC50": 1150}
{"compound": "Cc1csc2c(NC(=O)c3ccc([N+](=O)[O-])s3)nc(-c3ccc(C(F)(F)F)cc3F)nc12", "note": "[Compound 4-14, N-(2-(2-fluoro-4-(trifluoromethyl)phenyl)-7-methylthieno[3,2-d]pyrimidin-4-yl)-5-nitrothiophene-2-carboxamide]", "LC50": 1350}
{"compound": "Cc1csc2c(NC(=O)c3ccc([N+](=O)[O-])s3)nc(N3CCC(F)(F)C3)nc12", "note": "[Compound 4-11, N-(2-(3,3-difluoropyrrolidin-1-yl)-7-methylthieno[3,2-d]pyrimidin-4-yl)-5-nitrothiophene-2-carboxamide]", "LC50": 3180}
{"tested_on": "Hep3B cells (hepatocellular carcinoma cell line)", "assay": "In vitro MTS cell viability assay (NCI-60 methodology), Hep3B", "type": "cell-based", "conditions": "Homo sapiens, 48 h, Table 5, MTS, 2 days drug incubation, 50% reduction vs time zero, read-out: Hep3B LC50", "protocol": "as §1, §2, §3", "units": {"LC50": "nM"}}
{"compound": "Cc1ccc(-c2nc(NC(=O)c3ccc([N+](=O)[O-])s3)c3cnn(-c4ccccc4)c3n2)cn1", "note": "[Compound 5-34, N-(6-(6-methylpyridin-3-yl)-1-phenyl-1H-pyrazolo[3,4-d]pyrimidin-4-yl)-5-nitrothiophene-2-carboxamide]", "LC50": 850}
{"compound": "O=C(Nc1nc(-c2ccc(C(F)(F)F)c(F)c2)nc2c1cnn2-c1ccccc1)c1ccc([N+](=O)[O-])s1", "note": "[Compound 5-52, N-(6-(3-fluoro-4-(trifluoromethyl)phenyl)-1-phenyl-1H-pyrazolo[3,4-d]pyrimidin-4-yl)-5-nitrothiophene-2-carboxamide]", "LC50": "> 1250"}
{"compound": "CCOCCOc1ccc(-c2nc(NC(=O)c3ccc([N+](=O)[O-])s3)c3cnn(-c4ccccc4)c3n2)cn1", "note": "[Compound 5-55, N-(6-(6-(2-ethoxyethoxy)pyridin-3-yl)-1-phenyl-1H-pyrazolo[3,4-d]pyrimidin-4-yl)-5-nitrothiophene-2-carboxamide]", "LC50": 490}
{"compound": "O=C(Nc1nc(Oc2ccc(F)cc2)nc2c1cnn2-c1ccccc1)c1ccc([N+](=O)[O-])s1", "note": "[Compound 5-14, N-(6-(4-fluorophenoxy)-1-phenyl-1H-pyrazolo[3,4-d]pyrimidin-4-yl)-5-nitrothiophene-2-carboxamide]", "LC50": "> 5000"}
{"tested_on": "Hep3B cells (hepatocellular carcinoma cell line)", "assay": "In vitro MTS cell viability assay (NCI-60 methodology), Hep3B", "type": "cell-based", "conditions": "Homo sapiens, 48 h, Table 6, MTS, 2 days drug incubation, 50% reduction vs time zero, read-out: Hep3B LC50", "protocol": "as §1, §2, §3", "units": {"LC50": "nM"}}
{"compound": "O=C(Nc1nc(-c2ccc3c(c2)OCO3)nc2c1cnn2-c1cccc(F)c1)c1ccc([N+](=O)[O-])s1", "note": "[Compound 6-92, N-(6-(benzo[d][1,3]dioxol-5-yl)-1-(3-fluorophenyl)-1H-pyrazolo[3,4-d]pyrimidin-4-yl)-5-nitrothiophene-2-carboxamide]", "LC50": 450}
{"compound": "CCOCCOCCOc1ccc(-c2nc(NC(=O)c3ccc([N+](=O)[O-])s3)c3cnn(-c4cccc(F)c4)c3n2)cn1", "note": "[Compound 6-96, N-(6-(6-(2-(2-ethoxyethoxy)ethoxy)pyridin-3-yl)-1-(3-fluorophenyl)-1H-pyrazolo[3,4-d]pyrimidin-4-yl)-5-nitrothiophene-2-carboxamide]", "LC50": 350}
{"compound": "O=C(Nc1nc(-c2ccc(C(F)(F)F)cc2F)nc2c1cnn2-c1cccc(Cl)c1)c1ccc([N+](=O)[O-])s1", "note": "[Compound 6-41, N-(1-(3-chlorophenyl)-6-(2-fluoro-4-(trifluoromethyl)phenyl)-1H-pyrazolo[3,4-d]pyrimidin-4-yl)-5-nitrothiophene-2-carboxamide]", "LC50": 320}
{"compound": "Cc1ccn(-c2nc(NC(=O)c3ccc([N+](=O)[O-])s3)c3cnn(-c4ccc(C(C)(C)C)cc4)c3n2)n1", "note": "[Compound 6-77, N-(1-(4-(tert-butyl)phenyl)-6-(3-methyl-1H-pyrazol-1-yl)-1H-pyrazolo[3,4-d]pyrimidin-4-yl)-5-nitrothiophene-2-carboxamide]", "LC50": 250}
{"compound": "CCCOc1ccc(-c2nc(NC(=O)c3ccc([N+](=O)[O-])s3)c3cnn(-c4ccc(F)cc4)c3n2)cc1", "note": "[Compound 6-132]", "LC50": 430}
{"compound": "Cc1ccn(-c2nc(NC(=O)c3ccc([N+](=O)[O-])s3)c3cnn(-c4ccc(F)cc4)c3n2)n1", "note": "[Compound 6-108]", "LC50": 90}
{"compound": "O=C(Nc1nc(N2CCCCC2)nc2c1cnn2-c1ccc(Cl)cc1)c1ccc([N+](=O)[O-])s1", "note": "[Compound 6-47, N-(1-(4-chlorophenyl)-6-(piperidin-1-yl)-1H-pyrazolo[3,4,d]pyrimidin-4-yl)-5-nitrothiophene-2-carboxamide]", "LC50": 710}
{"compound": "CCOCCOCCOc1ccc(-c2nc(NC(=O)c3ccc([N+](=O)[O-])s3)c3cnn(-c4ccc(F)cc4)c3n2)cn1", "note": "[Compound 6-137, N-(6-(6-(2-(2-ethoxyethoxy)ethoxy)pyridin-3-yl)-1-(4-fluorophenyl)-1H-pyrazolo[3,4-d]pyrimidin-4-yl)-5-nitrothiophene-2-carboxamide]", "LC50": 180}
{"tested_on": "Hep3B cells (hepatocellular carcinoma cell line)", "assay": "In vitro MTS cell viability assay (NCI-60 methodology), Hep3B", "type": "cell-based", "conditions": "Homo sapiens, 48 h, Table 8, MTS, 2 days drug incubation, 50% reduction vs time zero, read-out: Hep3B LC50", "protocol": "as §1, §2, §3", "units": {"LC50": "nM"}}
{"compound": "COC(=O)c1ccc(-c2nc(NC(=O)c3ccc([N+](=O)[O-])s3)c3cnn(C4CCCCCC4)c3n2)cc1", "note": "[Compound 8-12, methyl 4-(1-cycloheptyl-4-(5-nitrothiophene-2-carboxamido)-1H-pyrazolo[3,4-d]pyrimidin-6-yl)benzoate]", "LC50": 470}
{"tested_on": "Hep3B cells (hepatocellular carcinoma cell line)", "assay": "In vitro MTS cell viability assay (NCI-60 methodology), Hep3B", "type": "cell-based", "conditions": "Homo sapiens, 48 h, Table 10, MTS, 2 days drug incubation, 50% reduction vs time zero, read-out: Hep3B LC50", "protocol": "as §1, §2, §3", "units": {"LC50": "nM"}}
{"compound": "CC(C)(C)c1ccc(-c2nc(NC(=O)c3ccc([N+](=O)[O-])s3)c3cnn(C4CCCCC4)c3n2)cc1", "note": "[Compound 10-35, N-(6-(4-(tert-butyl)phenyl)-1-cyclohexyl-1H-pyrazolo[3,4,d]pyrimidin-4-yl)-5-nitrothiophene-2-carboxamide]", "LC50": 1330}
{"compound": "O=C(Nc1nc(-c2ccco2)nc2c1cnn2C1CCCCC1)c1ccc([N+](=O)[O-])s1", "note": "[Compound 10-4, N-(1-cyclohexyl-6-(furan-2-yl)-1H-pyrazolo[3,4-d]pyrimidin-4-yl)-5-nitrothiophene-2-carboxamide]", "LC50": 1190}
{"compound": "O=C(Nc1nc(-c2ccc(OC(F)(F)F)cc2)nc2c1cnn2C1CCCCC1)c1ccc([N+](=O)[O-])s1", "note": "[Compound 10-26, N-(1-cyclohexyl-6-(4-(trifluoromethoxy)phenyl)-1H-pyrazolo[3,4-d]pyrimidin-4-yl)-5-nitrothiophene-2-carboxamide]", "LC50": 680}
{"compound": "COCCOc1ccc(-c2nc(NC(=O)c3ccc([N+](=O)[O-])s3)c3cnn(C4CCCCC4)c3n2)cc1", "note": "[Compound 10-50, N-(1-cyclohexyl-6-(4-(2-methoxyethoxy)phenyl)-1H-pyrazolo[3,4-d]pyrimidin-4-yl)-5-nitrothiophene-2-carboxamide]", "LC50": 2640}
{"compound": "O=C(Nc1nc(-c2cccnc2)nc2c1cnn2C1CCCCC1)c1ccc([N+](=O)[O-])s1", "note": "[Compound 10-10, N-(1-cyclohexyl-6-(pyridin-3-yl)-1H-pyrazolo[3,4,d]pyrimidin-4-yl)-5-nitrothiophene-2-carboxamide]", "LC50": 990}
{"compound": "O=C(Nc1nc(-c2ccc(F)cc2)nc2c1cnn2C1CCC(F)(F)CC1)c1ccc([N+](=O)[O-])s1", "note": "[Compound 10-54, N-(1-(4,4-difluorocyclohexyl)-6-(4-fluorphenyl)-1H-pyrazolo[3,4-d]pyrimidin-4-yl)-5-nitrothiophene-2-carboxamide]", "LC50": 920}
{"compound": "O=C(Nc1nc(-c2ccc(C(F)(F)F)cc2)nc2c1cnn2C1CCC(F)(F)CC1)c1ccc([N+](=O)[O-])s1", "note": "[Compound 10-58, N-(1-(4,4-difluorocyclohexyl)-6-(4-(trifluoromethyl)phenyl)-1H-pyrazolo[3,4-d]pyrimidin-4-yl)-5-nitrothiophene-2-carboxamide]", "LC50": 610}
